Reference: patent US12655120B2, “GPR52 modulator compounds” (NXERA PHARMA UK LIMITED, priority 2020, dated 2026)

Legend:
[1] = system: caffeine-induced hyperlocomotor activity; assay: Caffeine-induced locomotor activity in rat; type: in vivo, male Sprague-Dawley rats; conditions: 0.1, 0.3, 1 and 3 mg/kg PO, 60 min before caffeine 15 mg/kg s.c.; statistical significance at 1 and 3 mg/kg
Text: Caffeine, a non-selective adenosine receptor antagonist, is a psychostimulant which increases rodent locomotor activity principally via blockade of A2A receptors (Br. J. Pharmacol., 2000, 129, 1465). These receptors are densely expressed on the terminals of GABAergic striatopallidal neurons in the indirect pathway of the basal ganglia, in which dopamine D2 receptors are co-expressed (J. Comp. Neurol., 1998, 401, 163; J. Comp. Neurol., 2001, 431, 331). Tonic activation of A2A receptors decreases the affinity of D2 receptors to dopamine and antagonism of A2A receptors facilitates dopaminergic signalling (Curr. Pharm. Des., 2008, 14, 1468). […] Male Sprague-Dawley rats (200-250 g) were housed in groups with a 12 h light/dark cycle (lights on at 07.00), at an ambient temperature of 21±2° C. and with standard pelleted diet and water adlibitum. Testing was carried out in the light phase. On the day of the experiment, animals were habituated to the locomotor cages for a 60-minute period. Subsequently, they were dosed with vehicle or Example 39 (0.1, 0.3, 1 and 3 mg/kg) by the oral route and returned to the appropriate locomotor cage. Example 39 was formulated in a vehicle of 10% DMAC, 10% solutol (Kolliphor HS15) and 80% water (v/v/v). […] Locomotor activity was assessed for a 2 h period after caffeine treatment. […] SEMs were calculated from the residuals of the statistical model. […]

[2] = Pharmacokinetic profiling in male Sprague-Dawley rats (IV and PO); type: in vivo; conditions: plasma, Rat PO, 3 mg/kg, n = 3, mean ± standard deviation
Description: The pharmacokinetic profiles of Example 39 were assessed in male Sprague-Dawley rats via intravenous (IV) and oral (per os, PO) routes of delivery. Pharmacokinetic data (mean values ±standard deviation) for Example 39 of the invention are detailed in Table 5.
Methods: For pharmacokinetic analysis, groups of three male Sprague-Dawley rats, ranging in weight between 200 and 230 g, were administered a single dose of Example 39 via IV or PO route, using the doses, dose volumes and vehicles specified in Table 5. Following dosing, blood samples were taken at several time points (pre-dose, 2 min, 5 min, 15 min, 30 min, 1 h, 3 h, 6 h, 12 h and 24 h for IV administration and pre-dose, 5 min, 15 min, 30 min, 1 hr, 2 h, 4 h, 8 h, 12 h and 24 h for PO administration) via serial tail vein bleeds, and centrifuged to separate plasma for analysis by LC-MS/MS. WinNonlin v8.2 statistics software (Pharsight Corporation, California, USA) was used to generate pharmacokinetic parameters using non-compartmental analysis.

[3] = target: T1, human GPR52 (Homo sapiens, UniProt Q9Y2T5); assay: GPR52 Agonist Functional cAMP Assay; type: cell-based; conditions: normalised to DMSO (0%) and maximal compound 7m (J. Med. Chem., 2014, 57, 5226) response (100%)
T1 construct: expressed in transfected cells; host or cells: HEKf suspension cells infected with BacMam virus
Description: HEKf suspension cells were infected for 24 h with 0.1% v/v human GPR52 expressing BacMam virus, a modified baculovirus designed for mammalian gene expression. Following BacMam infection, cells were pelleted by centrifugation (335 g, 5 min), resuspended in cell freezing medium (Sigma) and frozen at −150° C. until required. On experiment day, 25 nL GPR52 compound dilutions, prepared in DMSO, were stamped onto proxiplates (PerkinElmer) by a LabCyte ECHO acoustic dispenser. Frozen cells were thawed and resuspended in assay stimulation buffer (Cisbio) containing 0.5 mM 3-iso-butyl-1-methylxanthine (IBMX, Sigma) to achieve a density of 2000 cells per well. 10 μl cells were added to assay plates using a Multidrop Combi Reagent Dispenser (ThermoFisher) before centrifugation (335 g, 1 min). Cells were incubated with compounds at 37° C. for 30 min prior to addition of cAMP detection reagents (HiRange cAMP kit, Cisbio) which were prepared according to the manufacturer's instructions. Plates were shaken for 1 h at room temperature before reading on a PHERAstar FS plate reader (BMG Labtech) using standard HTRF settings. HTRF ratios were obtained by dividing the acceptor emissions (665 nm) by the donor emissions (620 nm) and multiplying by 10,000.

T1 sequence (Q9Y2T5 whole entry): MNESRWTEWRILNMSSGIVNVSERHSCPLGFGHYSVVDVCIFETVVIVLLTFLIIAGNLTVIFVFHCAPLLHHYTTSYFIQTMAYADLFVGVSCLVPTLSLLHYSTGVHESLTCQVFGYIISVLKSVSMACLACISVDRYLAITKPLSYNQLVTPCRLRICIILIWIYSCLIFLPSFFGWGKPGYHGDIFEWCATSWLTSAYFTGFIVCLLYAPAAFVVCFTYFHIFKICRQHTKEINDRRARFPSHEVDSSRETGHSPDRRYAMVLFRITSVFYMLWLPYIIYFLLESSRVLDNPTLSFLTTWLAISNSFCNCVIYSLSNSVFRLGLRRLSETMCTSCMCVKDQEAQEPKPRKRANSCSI

Structure (SMILES): Cc1nn(-c2cc(Cc3cc(F)cc(C(F)(F)F)c3)ccn2)c(CO)c1C(N)=O [Example 39, 1-(4-(3-fluoro-5-(trifluoromethyl)benzyl)pyridin-2-yl)-5-(hydroxymethyl)-3-methyl-1H-pyrazole-4-carboxamide]
- effect on caffeine-induced hyperlocomotor response [1]: dose-dependent reduction
- bioavailability [2]: 77.4 ± 14.9%
- Emax [3]: 101%
